# Data from US20230286970A1, “NOVEL OXADIAZOLE-BASED SELECTIVE HDAC6 INHIBITORS” (ITALFARMACO S.P.A., priority 2020, published 2023).
# Read-outs that look alike come from different tables or passages of the source.
# Experiments:
# [1] = molecular target: recombinant human HDAC6 (Homo sapiens (Human), UniProt Q9UBN7); test: Enzymatic screening, HDAC6 inhibition (fluorogenic FdL_G substrate); type: biochemical
# How it was run: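 Enzyme was preincubated with compound (8 doses, triplicate, 1% DMSO) in 25 mM Tris-HCl pH 8, 130 mM NaCl, 0.05% Tween-20, 10% glycerol, with BSA. A FLUOR DE LYS-Green substrate was then added, and fluorescence was read after developer plus 2 μM TSA.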
# [2] = 4 h
# [3] = 90 min, pH 7.4
# [4] = system: α-tubulin acetylation in 697 cell line; test: In vitro α-tubulin acetylation in 697 cell line (ELISA); type: cell-based; conditions: 16 hours, read-out: fold increase @ 1 uM TubAc (ratio of acetylated tubulin and total tubulin towards control)
# How it was run: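 B 697 cells in RPMI 10% FCS were treated for 16 h at 37 °C with compound at 1000, 333, 111 or 37 nM. Lysate (0.3 μg protein) was coated and probed by ELISA for acetylated and total α-tubulin, read at 450 nm. The acetylated/total ratio is given as fold over untreated control.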
# [5] = 4 h; remark: listed apart in the source
# [6] = molecular target: recombinant human HDAC1 (Homo sapiens (Human), UniProt Q13547); test: Enzymatic screening, HDAC1 inhibition (fluorogenic FdL_G substrate); type: biochemical
# How it was run: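 Recombinant human HDAC1 inhibition was measured fluorometrically using the FLUOR DE LYS-Green (FdL_G) substrate. Compounds at 8 doses (1% DMSO final) in Tris-HCl pH 8 buffer with NaCl, Tween-20 and glycerol were preincubated in triplicate with enzyme and 1 mg/mL BSA, then given substrate. Developer I plus 2 μM TSA was added, and fluorescence read after 25 minutes in the dark.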
# [7] = 90 min, pH 7.4; remark: listed apart in the source
# [8] = Stability in human plasma; conditions: after 4 hours, 37° C.
# [9] = molecular target: HDAC9 (Homo sapiens (Human), UniProt Q9UKV0); test: Enzymatic screening, HDAC9 inhibition; type: biochemical
# Method: (§1) For each test compound, 100× concentrated DMSO solutions at 8 doses were prepared and then diluted in assay buffer (25 mM Tris-HCl, pH 8, 130 mM NaCl, 0.05% Tween-20, 10% Glycerol) to obtain 5× concentrated solutions in relation to the final concentrations (typical final concentration range—6.4-200000 nM or 0.18-50000 nM, final DMSO content—1%). Then 10 μL solution of each test compound concentration were placed on a 96-well plate in triplicate and 15 μL of 3.33× concentrated enzyme solution in the assay buffer containing 3.33× concentrated BSA (final BSA concentration—2 mg/mL for HDAC4, HDAC5 and HDAC9 or 1 mg/mL for other isoforms) and in the case of HDAC6-3.33× concentrated TCEP (final TCEP concentration—200 μM) were added to each well. After a period of preincubation (incubation times and temperatures vary for different isoforms and are shown in table 1) 25 μL of solution containing the substrate were added. As substrate, FLUOR DE LYS® deacetylase substrate (Enzo Life Sciences, cat: BML-KI104, FdL), FLUOR DE LYS®-Green substrate (Enzo Life Sciences, cat: BML-KI572, FdL_G) or Boc-Lys(Tfa)-AMC (Bachem, cat: 4060676.005, Tfal)—2× concentrated solution in assay buffer were used. Following a reaction period (reaction times and temperatures vary for different isoforms and are reported in Table 1), 50 μL of the development solution consisting of concentrate FLUOR DE LYS® developer I (Enzo Life Sciences, ca: BML-KI105), diluted 200 times in buffer (50 mM Tris-HCl, pH 8, 137 mM NaCl, 2.7 mM KCl, 1 mM MgCl2) plus 2 μM TSA was added and, after 25 minutes at room temperature in the dark, using the Victor 1420 Multilabel Counter Perkin Elmer Wallac instrument, the fluorescence reading was carried out.
# [10] = molecular target: HDAC3 (Homo sapiens (Human), UniProt O15379); test: Enzymatic screening, HDAC3 inhibition; type: biochemical
# Method: as §1
# [11] = molecular target: HDAC7 (Homo sapiens (Human), UniProt Q8WUI4); test: Enzymatic screening, HDAC7 inhibition; type: biochemical
# Method: as §1
# [12] = Stability to Phase I metabolism in rat S9 liver fraction; conditions: after 90 minutes, 37° C.
# [13] = molecular target: HDAC8 (Homo sapiens (Human), UniProt Q9BY41); test: Enzymatic screening, HDAC8 inhibition; type: biochemical
# Method: as §1
# [14] = molecular target: HDAC5 (Homo sapiens (Human), UniProt Q9UQL6); test: Enzymatic screening, HDAC5 inhibition; type: biochemical
# Method: as §1
# [15] = molecular target: HDAC4 (Homo sapiens (Human), UniProt P56524); test: Enzymatic screening, HDAC4 inhibition; type: biochemical
# Method: as §1
# [16] = Stability in rat plasma; conditions: after 4 hours, 37° C.
# [17] = molecular target: HDAC11 (Homo sapiens (Human), UniProt Q96DB2); test: Enzymatic screening, HDAC11 inhibition; type: biochemical
# Method: as §1
# [18] = Stability to Phase I metabolism in human S9 liver fraction; conditions: after 90 minutes, 37° C.
# [19] = molecular target: HDAC2 (Homo sapiens (Human), UniProt Q92769); test: Enzymatic screening, HDAC2 inhibition; type: biochemical
# Method: as §1
# [20] = molecular target: HDAC10 (Homo sapiens (Human), UniProt Q969S8); test: Enzymatic screening, HDAC10 inhibition; type: biochemical
# Method: as §1
# Sequence of HDAC9 (Q9UKV0 whole entry, canonical isoform): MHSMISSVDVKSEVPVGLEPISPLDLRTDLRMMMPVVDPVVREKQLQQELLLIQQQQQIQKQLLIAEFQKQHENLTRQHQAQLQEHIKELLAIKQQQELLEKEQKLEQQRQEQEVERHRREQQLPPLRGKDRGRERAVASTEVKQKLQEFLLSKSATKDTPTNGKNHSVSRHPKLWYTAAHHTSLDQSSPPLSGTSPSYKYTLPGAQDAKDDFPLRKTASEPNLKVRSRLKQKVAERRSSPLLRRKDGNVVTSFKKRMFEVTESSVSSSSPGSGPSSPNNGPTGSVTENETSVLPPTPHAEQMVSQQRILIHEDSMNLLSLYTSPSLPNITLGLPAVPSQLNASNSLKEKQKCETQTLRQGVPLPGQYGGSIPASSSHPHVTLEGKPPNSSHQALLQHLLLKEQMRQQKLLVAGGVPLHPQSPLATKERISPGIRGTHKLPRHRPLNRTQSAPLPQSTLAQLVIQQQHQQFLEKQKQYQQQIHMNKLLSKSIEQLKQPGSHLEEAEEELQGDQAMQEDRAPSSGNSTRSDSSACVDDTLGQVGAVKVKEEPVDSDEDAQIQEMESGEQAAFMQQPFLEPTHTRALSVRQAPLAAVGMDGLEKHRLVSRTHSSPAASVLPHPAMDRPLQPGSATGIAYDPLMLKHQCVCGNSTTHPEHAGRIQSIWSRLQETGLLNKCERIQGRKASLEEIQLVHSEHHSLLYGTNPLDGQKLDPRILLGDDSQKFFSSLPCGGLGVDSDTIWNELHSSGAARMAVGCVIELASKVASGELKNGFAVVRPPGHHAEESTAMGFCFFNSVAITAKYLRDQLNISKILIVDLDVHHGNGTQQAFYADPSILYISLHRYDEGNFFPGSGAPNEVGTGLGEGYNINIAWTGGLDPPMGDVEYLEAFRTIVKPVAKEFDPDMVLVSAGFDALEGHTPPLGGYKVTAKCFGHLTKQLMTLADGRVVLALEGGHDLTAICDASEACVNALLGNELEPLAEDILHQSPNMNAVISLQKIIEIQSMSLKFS
# Sequence of recombinant human HDAC1 (Q13547 whole entry): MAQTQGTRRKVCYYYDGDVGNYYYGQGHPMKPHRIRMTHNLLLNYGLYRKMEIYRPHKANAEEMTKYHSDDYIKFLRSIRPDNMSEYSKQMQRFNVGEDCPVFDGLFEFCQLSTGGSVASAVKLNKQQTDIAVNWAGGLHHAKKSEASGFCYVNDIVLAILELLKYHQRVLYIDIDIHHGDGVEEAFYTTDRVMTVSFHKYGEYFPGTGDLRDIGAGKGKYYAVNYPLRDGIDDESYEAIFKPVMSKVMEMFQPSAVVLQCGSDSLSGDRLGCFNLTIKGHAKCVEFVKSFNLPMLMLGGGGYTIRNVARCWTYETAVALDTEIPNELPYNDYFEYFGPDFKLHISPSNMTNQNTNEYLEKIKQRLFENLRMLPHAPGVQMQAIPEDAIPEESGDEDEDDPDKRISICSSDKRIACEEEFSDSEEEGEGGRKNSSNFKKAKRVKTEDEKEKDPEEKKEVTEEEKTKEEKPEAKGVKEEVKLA
# Sequence of HDAC10 (Q969S8 whole entry): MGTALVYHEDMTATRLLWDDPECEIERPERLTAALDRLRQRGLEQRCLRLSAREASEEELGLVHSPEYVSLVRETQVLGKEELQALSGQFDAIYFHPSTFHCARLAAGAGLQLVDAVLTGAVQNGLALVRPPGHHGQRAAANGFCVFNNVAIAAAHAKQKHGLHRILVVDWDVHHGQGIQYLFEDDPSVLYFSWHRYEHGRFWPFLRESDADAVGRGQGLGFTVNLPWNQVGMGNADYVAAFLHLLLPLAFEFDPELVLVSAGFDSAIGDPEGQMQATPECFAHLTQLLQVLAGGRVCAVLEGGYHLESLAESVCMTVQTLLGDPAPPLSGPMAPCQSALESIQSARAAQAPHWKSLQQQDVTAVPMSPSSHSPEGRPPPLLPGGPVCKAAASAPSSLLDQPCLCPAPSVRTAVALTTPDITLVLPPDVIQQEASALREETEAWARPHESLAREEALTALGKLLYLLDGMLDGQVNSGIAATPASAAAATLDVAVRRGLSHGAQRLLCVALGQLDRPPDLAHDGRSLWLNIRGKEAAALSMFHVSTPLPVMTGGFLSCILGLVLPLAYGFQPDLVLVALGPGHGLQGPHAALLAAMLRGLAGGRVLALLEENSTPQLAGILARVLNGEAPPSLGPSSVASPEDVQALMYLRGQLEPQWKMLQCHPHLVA
# Sequence of HDAC3 (O15379 whole entry): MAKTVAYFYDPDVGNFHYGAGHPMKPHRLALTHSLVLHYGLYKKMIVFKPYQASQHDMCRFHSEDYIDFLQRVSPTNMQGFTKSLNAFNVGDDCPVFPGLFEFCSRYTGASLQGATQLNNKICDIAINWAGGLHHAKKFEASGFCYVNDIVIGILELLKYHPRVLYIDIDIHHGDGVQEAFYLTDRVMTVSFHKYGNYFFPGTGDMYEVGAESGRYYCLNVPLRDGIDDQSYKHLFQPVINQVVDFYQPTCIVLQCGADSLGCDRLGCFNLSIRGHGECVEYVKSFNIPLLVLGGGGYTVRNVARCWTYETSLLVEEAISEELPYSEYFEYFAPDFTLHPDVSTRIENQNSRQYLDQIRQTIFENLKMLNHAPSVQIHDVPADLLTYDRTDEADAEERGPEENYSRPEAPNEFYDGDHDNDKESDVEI
# Sequence of HDAC3 (Q9Y618 395-489 partner): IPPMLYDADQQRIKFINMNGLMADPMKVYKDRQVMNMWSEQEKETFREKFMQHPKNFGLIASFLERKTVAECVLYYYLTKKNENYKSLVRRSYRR
# Sequence of recombinant human HDAC6 (Q9UBN7 whole entry): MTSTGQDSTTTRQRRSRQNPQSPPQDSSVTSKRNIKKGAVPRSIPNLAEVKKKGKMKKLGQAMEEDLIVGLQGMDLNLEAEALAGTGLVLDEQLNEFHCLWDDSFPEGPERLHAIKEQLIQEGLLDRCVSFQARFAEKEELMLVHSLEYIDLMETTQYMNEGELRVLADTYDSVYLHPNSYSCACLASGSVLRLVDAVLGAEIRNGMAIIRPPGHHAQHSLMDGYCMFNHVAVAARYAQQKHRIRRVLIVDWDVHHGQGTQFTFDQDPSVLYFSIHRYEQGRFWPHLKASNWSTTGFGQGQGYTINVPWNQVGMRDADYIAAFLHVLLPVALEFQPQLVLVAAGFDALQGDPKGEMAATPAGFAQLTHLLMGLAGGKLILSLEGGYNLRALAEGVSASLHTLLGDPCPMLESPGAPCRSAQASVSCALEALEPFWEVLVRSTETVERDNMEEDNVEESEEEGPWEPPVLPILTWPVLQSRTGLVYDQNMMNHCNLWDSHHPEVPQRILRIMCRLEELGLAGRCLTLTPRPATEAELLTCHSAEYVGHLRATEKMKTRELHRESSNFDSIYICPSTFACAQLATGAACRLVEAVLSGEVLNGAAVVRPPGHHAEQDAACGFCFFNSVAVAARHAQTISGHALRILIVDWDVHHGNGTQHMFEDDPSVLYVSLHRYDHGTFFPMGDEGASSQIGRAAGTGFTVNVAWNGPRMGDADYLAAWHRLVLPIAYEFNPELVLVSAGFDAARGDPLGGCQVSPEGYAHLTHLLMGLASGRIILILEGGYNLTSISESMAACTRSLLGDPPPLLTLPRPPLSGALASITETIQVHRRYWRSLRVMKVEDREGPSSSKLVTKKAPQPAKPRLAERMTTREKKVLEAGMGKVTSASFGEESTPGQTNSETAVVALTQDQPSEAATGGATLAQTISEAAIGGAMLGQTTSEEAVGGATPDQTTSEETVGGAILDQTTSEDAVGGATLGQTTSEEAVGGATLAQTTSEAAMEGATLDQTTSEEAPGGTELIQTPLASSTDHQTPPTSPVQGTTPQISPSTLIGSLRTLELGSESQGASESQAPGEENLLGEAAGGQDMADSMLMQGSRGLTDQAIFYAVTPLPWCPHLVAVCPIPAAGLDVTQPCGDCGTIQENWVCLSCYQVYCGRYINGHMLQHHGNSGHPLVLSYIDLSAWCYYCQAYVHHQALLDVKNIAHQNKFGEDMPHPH
# Sequence of HDAC2 (Q92769 whole entry): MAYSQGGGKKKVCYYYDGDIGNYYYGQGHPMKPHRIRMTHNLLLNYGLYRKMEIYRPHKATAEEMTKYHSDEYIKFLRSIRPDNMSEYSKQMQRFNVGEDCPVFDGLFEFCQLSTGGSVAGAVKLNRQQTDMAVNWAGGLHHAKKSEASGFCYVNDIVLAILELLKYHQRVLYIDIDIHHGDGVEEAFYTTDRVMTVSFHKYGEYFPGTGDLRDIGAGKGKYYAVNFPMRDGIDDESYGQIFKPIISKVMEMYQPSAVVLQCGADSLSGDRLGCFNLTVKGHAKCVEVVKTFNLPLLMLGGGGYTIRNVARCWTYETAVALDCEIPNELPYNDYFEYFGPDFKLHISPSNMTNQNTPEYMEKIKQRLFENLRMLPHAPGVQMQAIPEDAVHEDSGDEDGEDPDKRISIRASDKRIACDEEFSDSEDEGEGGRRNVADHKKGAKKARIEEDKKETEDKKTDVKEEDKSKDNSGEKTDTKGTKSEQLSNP
# Sequence of HDAC11 (Q96DB2 whole entry): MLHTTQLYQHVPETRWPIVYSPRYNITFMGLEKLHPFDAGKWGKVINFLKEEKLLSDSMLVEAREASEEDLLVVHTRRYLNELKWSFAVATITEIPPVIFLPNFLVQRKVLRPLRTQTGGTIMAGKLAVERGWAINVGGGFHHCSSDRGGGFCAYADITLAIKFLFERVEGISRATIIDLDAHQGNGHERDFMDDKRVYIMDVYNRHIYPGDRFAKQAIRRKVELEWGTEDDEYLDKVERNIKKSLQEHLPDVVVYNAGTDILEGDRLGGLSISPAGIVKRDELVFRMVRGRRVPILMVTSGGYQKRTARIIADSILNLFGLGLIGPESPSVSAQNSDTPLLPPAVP
SMILES,IC50 [1] [µM],IC50 [6] [µM],residual percentage in HUMAN PLASMA [8] [%],IC50 [9] [µM],IC50 [10] [µM],IC50 [11] [µM],residual percentage in RAT S9 FRACTION [12] [%],IC50 [13] [µM],IC50 [14] [µM],IC50 [15] [µM],residual percentage in RAT PLASMA [16] [%],IC50 [17] [µM],residual percentage in HUMAN S9 FRACTION [18] [%],IC50 [19] [µM],IC50 [20] [µM],residual percentage in RAT PLASMA [2] [%],residual percentage in HUMAN S9 FRACTION [3] [%],fold induction at 1 µM [4],residual percentage in HUMAN PLASMA [5] [%],residual percentage in RAT S9 FRACTION [7] [%]
"O=C1Nc2ccc(-c3cn(Cc4ccc(-c5nnc(C(F)F)o5)cc4)nn3)cc2C12CCNCC2 [compound 46, 5-(1-(4-(5-(difluoromethyl)-1,3,4-oxadiazol-2-yl)benzyl)-1H-1,2,3-triazol-4-yl)spiro[indoline-3,4′-piperidin]-2-one]",0.02,> 200,,,,,,,,,,,,,,72,81,5,74,60
"O=C1Nc2ccc(-c3cn(Cc4ccc(-c5nnc(C(F)F)o5)cn4)nn3)cc2C12CCNCC2 [Compd. 19, 5-(1-((5-(5-(difluoromethyl)-1,3,4-oxadiazol-2-yl)pyridin-2-yl)methyl)-1H-1,2,3-triazol-4-yl)spiro[indoline-3,4′-piperidin]-2-one]",0.011,> 200,,> 30,> 30,> 30,,572,> 30,> 30,,> 30,,> 30,> 30,83,96,4,83,94
"O=C(Nc1cc(-c2nnn(Cc3ccc(-c4nnc(C(F)F)o4)cn3)n2)ccc1O)N1CCOCC1 [compound 2, N-(5-(2-((5-(5-(difluoromethyl)-1,3,4-oxadiazol-2-yl)pyridin-2-yl)methyl)-2H-tetrazol-5-yl)-2-hydroxyphenyl)morpholine-4-carboxamide]",0.01,> 200,87,> 30,> 30,> 30,61,> 200,> 30,> 30,90,> 30,70,> 30,> 30,,,26,,
"Nc1nc2cc(-c3cn(Cc4ccc(-c5nnc(C(F)F)o5)cn4)nn3)ccc2s1 [Compd. 3, 5-(1-((5-(5-(difluoromethyl)-1,3,4-oxadiazol-2-yl)pyridin-2-yl)methyl)-1H-1,2,3-triazol-4-yl)benzo[d]thiazol-2-amine]",0.01,> 200,70,22.5,> 30,> 30,90,> 200,> 30,> 30,80,> 30,97,> 30,> 30,,,13,,
"Nc1nc2cc(-c3cn(Cc4ccc(-c5nnc(C(F)F)o5)cc4)nn3)ccc2[nH]1 [Compd. 8, 5-(1-(4-(5-(difluoromethyl)-1,3,4-oxadiazol-2-yl)benzyl)-1H-1,2,3-triazol-4-yl)-1H-benzo[d]imidazol-2-amine]",0.014,> 200,99,> 30,> 30,> 30,94,> 200,> 30,> 30,76,> 30,95,> 30,> 30,,,10,,
"Nc1nc2ccc(-c3cn(Cc4ccc(-c5nnc(C(F)F)o5)cn4)nn3)cc2s1 [Compd. 1, 6-(1-((5-(5-(difluoromethyl)-1,3,4-oxadiazol-2-yl)pyridin-2-yl)methyl)-1H-1,2,3-triazol-4-yl)benzo[d]thiazol-2-amine]",0.007,> 200,85,> 30,> 30,> 30,96,> 200,> 30,> 30,79,> 30,93,> 30,> 30,,,25,,

# More lines, main results first:
IC50 [1] [µM],IC50 [6] [µM],residual percentage in HUMAN PLASMA [8] [%],IC50 [9] [µM],IC50 [10] [µM],IC50 [11] [µM],residual percentage in RAT S9 FRACTION [12] [%],IC50 [13] [µM],IC50 [14] [µM],IC50 [15] [µM],residual percentage in RAT PLASMA [16] [%],IC50 [17] [µM],residual percentage in HUMAN S9 FRACTION [18] [%],IC50 [19] [µM],IC50 [20] [µM],SMILES,residual percentage in RAT PLASMA [2] [%],residual percentage in HUMAN S9 FRACTION [3] [%],fold induction at 1 µM [4],residual percentage in HUMAN PLASMA [5] [%],residual percentage in RAT S9 FRACTION [7] [%]
0.02,> 200,82,> 30,> 30,> 30,98,> 200,> 30,> 30,86,> 30,96,> 30,> 30,"Nc1ccc(-c2cn(Cc3ccc(-c4nnc(C(F)F)o4)cn3)cn2)cn1 [compound 12, 5-(1-((5-(5-(difluoromethyl)-1,3,4-oxadiazol-2-yl)pyridin-2-yl)methyl)-1H-imidazol-4-yl)pyridin-2-amine]",,,11,,
0.008,> 200,84,> 30,> 30,> 30,91,> 200,> 30,> 30,69,> 30,82,> 30,> 30,"CCNc1nc2ccc(-c3cn(Cc4ccc(-c5nnc(C(F)F)o5)cn4)nn3)cc2[nH]1 [compound 18, 5-(1-((5-(5-(difluoromethyl)-1,3,4-oxadiazol-2-yl)pyridin-2-yl)methyl)-1H-1,2,3-triazol-4-yl)-N-ethyl-1H-benzo[d]imidazol-2-amine]",,,11,,
0.019,> 200,83,> 30,> 30,> 30,90,> 200,> 30,> 30,86,> 30,70,> 30,> 30,"Cn1c(N)nc2cc(-c3nnn(Cc4ccc(-c5nnc(C(F)F)o5)cc4)n3)ccc21 [compound 11, 5-(2-(4-(5-(difluoromethyl)-1,3,4-oxadiazol-2-yl)benzyl)-2H-tetrazol-5-yl)-1-methyl-1H-benzo[d]imidazol-2-amine]",,,18,,
